The values that follow are results of earlier work, collected in US20090110724A1, “COMPOSITIONS AND METHODS FOR TREATMENT OF PAIN” (Everett Laboratories, Inc., priority 2007, published 2009).

The subject of one series is COX-3. The settings on record: Simmons et al. 2002.
The conditions of series [1]: cold water.

For the molecule `CC(=O)Nc1ccc(O)cc1` [acetaminophen, N-(4-hydroxyphenyl)acetamide], the “inhibition of COX-3” value in the series with COX-3 is recorded as “strong inhibition”. As to `C=CCC1(CC(C)C)C(=O)NC(=O)NC1=O` [Butalbital, 5-allyl-5-isobutylbarbituric acid], the solubility result in series [1] is reported as “slightly soluble”.
